Consider one compound from ChEMBL document CHEMBL4017496 (J Med Chem, 2017).

A short description of experiment [1]: Induction of adipogenesis in human bone marrow-derived mesenchymal stem cells assessed as adiponectin level at 4 uM measured on day 7 after 48 hrs by ELISA. The class given is functional, Mesenchymal stem cell. For orientation: ELISA stands for enzyme-linked immunosorbent assay.
The nature of experiment [2]: Induction of adipogenesis in human bone marrow-derived mesenchymal stem cells assessed as adiponectin level at 20 uM measured on day 7 after 48 hrs by ELISA. It is filed as functional, Mesenchymal stem cell.
The target in experiment [3] is T1, Peroxisome proliferator-activated receptor delta (Homo sapiens) (UniProt Q03181).
T1 sequence (whole entry): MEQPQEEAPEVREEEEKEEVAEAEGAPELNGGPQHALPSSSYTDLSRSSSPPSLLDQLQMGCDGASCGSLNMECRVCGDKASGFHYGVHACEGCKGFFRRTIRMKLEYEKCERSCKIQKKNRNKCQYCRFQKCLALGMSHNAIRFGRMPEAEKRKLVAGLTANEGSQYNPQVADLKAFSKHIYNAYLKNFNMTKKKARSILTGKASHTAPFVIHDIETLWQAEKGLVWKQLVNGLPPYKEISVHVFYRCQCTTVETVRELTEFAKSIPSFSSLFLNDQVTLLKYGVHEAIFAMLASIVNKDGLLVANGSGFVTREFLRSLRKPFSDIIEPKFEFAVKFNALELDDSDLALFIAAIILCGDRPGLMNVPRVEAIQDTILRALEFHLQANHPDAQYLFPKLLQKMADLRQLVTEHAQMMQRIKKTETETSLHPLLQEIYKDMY
Briefly: Displacement of Fluormone-Pan-PPAR Green from human GST-tagged PPARdelta LBD at 4 uM by TR-FRET assay relative to control. For orientation: TR-FRET usually uses a lanthanide donor and a delayed reading to cut background.

Experiment [4] concerns Mesenchymal stem cell. Put plainly: Induction of adipogenesis in human bone marrow-derived mesenchymal stem cells assessed as increase in adiponectin production at 20.4 uM after 7 days in presence of IDX. The class given is functional, cell-based.
The target of experiment [5] is T2, Oxysterols receptor LXR-beta (Homo sapiens) (UniProt P55055).
T2 sequence (whole entry): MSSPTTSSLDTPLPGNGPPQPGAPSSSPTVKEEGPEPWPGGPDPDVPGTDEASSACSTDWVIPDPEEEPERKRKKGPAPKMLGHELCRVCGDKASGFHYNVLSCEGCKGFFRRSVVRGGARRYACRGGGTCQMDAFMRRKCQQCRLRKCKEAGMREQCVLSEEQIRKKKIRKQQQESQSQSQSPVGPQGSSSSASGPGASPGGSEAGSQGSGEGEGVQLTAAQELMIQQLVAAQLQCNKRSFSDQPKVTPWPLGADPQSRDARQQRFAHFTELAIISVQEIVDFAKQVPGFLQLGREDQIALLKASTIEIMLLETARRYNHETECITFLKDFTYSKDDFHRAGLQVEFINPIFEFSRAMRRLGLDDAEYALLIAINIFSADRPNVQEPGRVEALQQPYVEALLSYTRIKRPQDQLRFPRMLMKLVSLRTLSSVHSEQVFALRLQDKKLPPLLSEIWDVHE
Put plainly: Binding affinity to human LXRbeta at 4 uM by TR-FRET assay.

For experiment [6], the target named is T3, Cyclin-dependent kinase 5/CDK5 activator 1 (Homo sapiens) (UniProt Q00535+Q15078). Briefly: Inhibition of human CDK5/p25 up to 20 uM using histone H1 as substrate after 40 mins in presence of [gamma32P]ATP by scintillation counting. The class given is protein-complex assay.
T3 sequence (Q00535 whole entry): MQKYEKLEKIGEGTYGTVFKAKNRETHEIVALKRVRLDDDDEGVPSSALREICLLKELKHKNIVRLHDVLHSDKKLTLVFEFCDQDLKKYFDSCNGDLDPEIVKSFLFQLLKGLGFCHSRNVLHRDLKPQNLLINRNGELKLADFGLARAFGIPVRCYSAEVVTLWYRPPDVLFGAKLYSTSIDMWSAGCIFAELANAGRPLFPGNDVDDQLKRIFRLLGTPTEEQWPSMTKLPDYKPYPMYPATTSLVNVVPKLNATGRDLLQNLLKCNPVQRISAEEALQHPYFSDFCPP
T3 sequence (Q15078 99-307 partner limits assumed): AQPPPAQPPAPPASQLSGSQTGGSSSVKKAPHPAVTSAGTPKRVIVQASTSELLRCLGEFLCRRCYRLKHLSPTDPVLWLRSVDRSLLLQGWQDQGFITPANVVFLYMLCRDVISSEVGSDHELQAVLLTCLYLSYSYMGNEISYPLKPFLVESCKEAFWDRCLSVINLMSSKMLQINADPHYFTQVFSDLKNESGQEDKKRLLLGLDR
In experiment [7] the test system is Mesenchymal stem cell. Put plainly: Induction of adipogenesis in human bone marrow-derived mesenchymal stem cells assessed as increase in number and size of lipid droplets at 20 uM after 7 days in presence of IDX by oil red O staining based inverted microscopic method. It is filed as functional.
Experiment [8] has as its system Mus musculus. Briefly: Antidiabetic activity in STZ-induced diabetic C57BL/6J mouse assessed as insulin sensitivity by measuring reduction of serum triglyceride level at 20 mg/kg,po for 5 days. It is filed as functional, organism-based.
For experiment [9], the system named is Mus musculus. Briefly: Antidiabetic activity in STZ-induced diabetic C57BL/6J mouse assessed as insulin sensitivity by measuring reduction of serum glucose levels at 20 mg/kg,po for 5 days measured at 1 and 4 hrs post last dose. It is filed as functional, organism-based.
The target of experiment [10] is T4, Peroxisome proliferator-activated receptor alpha (Homo sapiens) (UniProt Q07869).
T4 sequence (whole entry): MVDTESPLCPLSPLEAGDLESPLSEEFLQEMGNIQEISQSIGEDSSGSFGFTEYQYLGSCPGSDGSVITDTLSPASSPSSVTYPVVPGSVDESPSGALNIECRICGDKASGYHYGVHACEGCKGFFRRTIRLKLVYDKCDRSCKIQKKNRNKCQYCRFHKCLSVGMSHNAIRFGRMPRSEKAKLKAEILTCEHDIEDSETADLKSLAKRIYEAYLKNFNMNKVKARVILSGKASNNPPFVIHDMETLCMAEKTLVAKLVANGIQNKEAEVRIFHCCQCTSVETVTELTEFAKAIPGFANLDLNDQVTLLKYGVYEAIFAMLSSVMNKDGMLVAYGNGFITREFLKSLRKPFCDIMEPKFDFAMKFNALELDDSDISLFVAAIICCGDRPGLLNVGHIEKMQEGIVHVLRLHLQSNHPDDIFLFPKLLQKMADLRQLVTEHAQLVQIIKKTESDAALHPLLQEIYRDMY
Put plainly: Displacement of Fluormone-Pan-PPAR Green from human GST-tagged PPARalpha LBD at 4 uM by TR-FRET assay relative to control.

Experiment [11] has as its target T1, Peroxisome proliferator-activated receptor delta (Homo sapiens). Put plainly: Displacement of Fluormone-Pan-PPAR Green from human GST-tagged PPARdelta LBD at 20 uM by TR-FRET assay relative to control.
For experiment [12], the system named is Mesenchymal stem cell. Briefly: Induction of adipogenesis in human bone marrow-derived mesenchymal stem cells assessed as increase in the production of adiponectin measured on day 7 after 48 hrs by ELISA. The class given is functional, cell-based.
The target of experiment [13] is T1, Peroxisome proliferator-activated receptor delta (Homo sapiens). Put plainly: Transactivation of human GST-tagged PPARdelta LBD assessed as fluorescein-C33 coactivator recruitment at 10 uM by TR-FRET assay.
Experiment [14] relates to Mus musculus. Put plainly: Antidiabetic activity in STZ-induced diabetic C57BL/6J mouse assessed as insulin sensitivity by measuring reduction of serum lactate level at 20 mg/kg,po for 5 days. It is filed as functional, organism-based.
Experiment [15] addresses T3, Cyclin-dependent kinase 5/CDK5 activator 1 (Homo sapiens). Put plainly: Inhibition of human CDK5/p35 up to 20 uM using histone H1 as substrate after 40 mins in presence of [gamma32P]ATP by scintillation counting. The class given is protein-complex assay.
The target of experiment [16] is T1, Peroxisome proliferator-activated receptor delta (Homo sapiens). Briefly: Displacement of Fluormone-Pan-PPAR Green from human GST-tagged PPARdelta LBD by TR-FRET assay.

Activity calls are given as the source filed them. The calls are words filed in the database; no cut-off is given here.

In general, inhibition refers to the relative decrease from the control value, in per cent. In the case of `CNC(=O)[C@H]1O[C@@H](n2cnc3c(NCc4cccc(I)c4)ncnc32)[C@H](O)[C@@H]1O` [IB-MECA], the results for the Activity (in experiment [1]; in experiment [2]; in the experiment with Mesenchymal stem cell [12]) were 117 pg/mL, 216 pg/mL and “Dose-dependent effect”, respectively. The inhibition in [3] is 26%; in experiment [11], 48.3%; in [16] it was “Dose-dependent effect”. In addition, the result in the experiment on Mesenchymal stem cell [4], in the experiment with Mesenchymal stem cell [7], in the experiment with Mus musculus [8], with Mus musculus [9] and with Mus musculus [14] was Active. The outcome in experiment [5] and in experiment [13] was inactive. For the same compound, the inhibition result in experiment [6], in experiment [10] and in experiment [15] was “inactive” each time.
